Measured values as given in patent US11186817B2, “Chemically defined cell culture media additive” (IUCF-HYU (INDUSTRY-UNIVERSITY COOPERATION FOUNDATION …, priority 2014, dated 2021).

Experiments:
Format in all cases: cell-based, Chinese hamster
CHO DG44 cell line [1] = experiment: Effective concentration range of THF: suspension growth of CHO DG44 in HY-CDM media
From the text: (§1) 1. Cell line and media: CHO DG44 cell line was used as a DHFR-deficient cell line. The cell line was passaged 80 times or more and suspension adapted in HY-CDM (in-house) media as chemically defined media. The suspension-adapted cell line was used to evaluate the influence of tetrahydrofolate (THF) and dihydrofolate (DHF) and the growth characteristics in commercial chemically defined media. The HY-CDM media were composed of chemically defined components only. Each HY-CDM medium further included a growth factor. HY-CDM media used in Examples 1, 3, and 4 were free of an animal derived lipid mixture, and HY-CDM media used in Example 2 were supplemented with cod liver oil.
(§2) 2. Cell suspension culture: The cell line was inoculated at a density of 4×10^5 cells/ml and cultured in an Erlenmeyer flask with a 30 ml/125 ml working volume on an orbital shaker at 120 rpm under humidified conditions at 37° C. and 5% CO2. Before inoculation, the cells were centrifuged at 1,000 rpm (×162 g) for 5 min, the supernatant was discarded, and the remaining cells were dispersed into single cells in the heated medium. The cells were passaged three times to minimize the influence of the remaining medium under the experimental conditions. The subcultured cells were evaluated.
(§3) 3. Density of live cells: The density of live cells was analyzed using a hemocytometer (Neubauer improved bright-line, Marienfeld, Germany), an inverted microscope (CK30, Olympus, Japan), and trypan blue dye exclusion.
In this example, the effective concentration range of THF inducing the suspension growth of the CHO DG44 cell line in the HY-CDM media was evaluated with varying amounts of THF.
To this end, the CHO DG44 cell line was passaged three time at a THF concentration of 0-480 mg/L, and their maximum cell densities and doubling times were measured.

CHO DG44 cell line [2] = experiment: Growth of CHO DG44 cell line in commercial chemically defined media with and without THF; details: six commercial chemically defined media
From the text: as §1
2. Cell suspension culture: The cell line was inoculated at a density of 4×10^5 cells/ml and cultured in an Erlenmeyer flask with a 30 ml/125 ml working volume on an orbital shaker at 120 rpm under humidified conditions at 37° C. and 5% CO2. […] The subcultured cells were evaluated.
as §3
In this example, the versatility of the effect of THF addition to induce cell growth was evaluated. […]

CHO DG44 cell line [3] = experiment: Subculture characteristics of CHO DG44 in HY-CDM medium supplemented with THF; details: 1.6 mg/L THF, HY-CDM with cod liver oil
From the text: as §1, §2, §3
A CHO DG44 cell line frozen-stored in an HY-CDM medium supplemented with 1.6 mg/L THF was thawed and subcultured every 2 days. On day 2 after the third passage, a cell density of 21.9±2.2×10^5 cells/ml and a doubling time of 20.3±1.3 h were observed, which were about 28% higher and about 20% more rapid than those of the control (17.1±3.4×10^5 cells/ml and 25.3±3.7 h), respectively (Table 2). The HY-CDM medium included a commercial lipid mixture containing cod liver oil as an animal derived component.

[4] = after the third passage, subcultured every 2 days

tetrahydrofolate [THF]
Doubling time, Passage 2 (CHO DG44 cell line [1]; THF 0.4000 mg/L, HY-CDM): 24.5 h
Doubling time, Passage 3 (CHO DG44 cell line [1]; THF 0.4000 mg/L, HY-CDM): 19.2 h
Maximum cell density, Average (CHO DG44 cell line [1]; THF 0.4000 mg/L, HY-CDM): 29.7 ×10^5 cells/ml
Maximum cell density, Passage 1 (CHO DG44 cell line [1]; THF 0.4000 mg/L, HY-CDM): 30.2 ×10^5 cells/ml
Maximum cell density, Passage 2 (CHO DG44 cell line [1]; THF 0.4000 mg/L, HY-CDM): 28.1 ×10^5 cells/ml
Maximum cell density, Passage 3 (CHO DG44 cell line [1]; THF 0.4000 mg/L, HY-CDM): 30.9 ×10^5 cells/ml
Cell density increase (CHO DG44 cell line [1]; THF 0.8 mg/L, HY-CDM): ~73%
Doubling time, Average (CHO DG44 cell line [1]; THF 0.8000 mg/L, HY-CDM): 20.7 h
Doubling time, Passage 1 (CHO DG44 cell line [1]; THF 0.8000 mg/L, HY-CDM): 22.1 h
Doubling time, Passage 2 (CHO DG44 cell line [1]; THF 0.8000 mg/L, HY-CDM): 22.2 h
Doubling time, Passage 3 (CHO DG44 cell line [1]; THF 0.8000 mg/L, HY-CDM): 17.6 h
Maximum cell density, Average (CHO DG44 cell line [1]; THF 0.8000 mg/L, HY-CDM): 35.3 ×10^5 cells/ml
Maximum cell density, Passage 1 (CHO DG44 cell line [1]; THF 0.8000 mg/L, HY-CDM): 34.2 ×10^5 cells/ml
Maximum cell density, Passage 2 (CHO DG44 cell line [1]; THF 0.8000 mg/L, HY-CDM): 35.4 ×10^5 cells/ml
Maximum cell density, Passage 3 (CHO DG44 cell line [1]; THF 0.8000 mg/L, HY-CDM): 36.4 ×10^5 cells/ml
Doubling time, Average (CHO DG44 cell line [1]; THF 1.6000 mg/L, HY-CDM): 21.3 h
Doubling time, Passage 1 (CHO DG44 cell line [1]; THF 1.6000 mg/L, HY-CDM): 21.4 h
Doubling time, Passage 2 (CHO DG44 cell line [1]; THF 1.6000 mg/L, HY-CDM): 22.0 h
Doubling time, Passage 3 (CHO DG44 cell line [1]; THF 1.6000 mg/L, HY-CDM): 20.5 h
Maximum cell density, Average (CHO DG44 cell line [1]; THF 1.6000 mg/L, HY-CDM): 46.9 ×10^5 cells/ml
Maximum cell density, Passage 1 (CHO DG44 cell line [1]; THF 1.6000 mg/L, HY-CDM): 46.0 ×10^5 cells/ml
Maximum cell density, Passage 2 (CHO DG44 cell line [1]; THF 1.6000 mg/L, HY-CDM): 47.0 ×10^5 cells/ml
Maximum cell density, Passage 3 (CHO DG44 cell line [1]; THF 1.6000 mg/L, HY-CDM): 47.8 ×10^5 cells/ml
Doubling time, Average (CHO DG44 cell line [1]; THF 16.0000 mg/L, HY-CDM): 21.2 h
Doubling time, Passage 1 (CHO DG44 cell line [1]; THF 16.0000 mg/L, HY-CDM): 22.5 h
Doubling time, Passage 2 (CHO DG44 cell line [1]; THF 16.0000 mg/L, HY-CDM): 21.2 h
Doubling time, Passage 3 (CHO DG44 cell line [1]; THF 16.0000 mg/L, HY-CDM): 19.8 h
Maximum cell density, Average (CHO DG44 cell line [1]; THF 16.0000 mg/L, HY-CDM): 50.1 ×10^5 cells/ml
Maximum cell density, Passage 1 (CHO DG44 cell line [1]; THF 16.0000 mg/L, HY-CDM): 52.0 ×10^5 cells/ml
Maximum cell density, Passage 2 (CHO DG44 cell line [1]; THF 16.0000 mg/L, HY-CDM): 48.8 ×10^5 cells/ml
Maximum cell density, Passage 3 (CHO DG44 cell line [1]; THF 16.0000 mg/L, HY-CDM): 49.6 ×10^5 cells/ml
Doubling time (CHO DG44 cell line [1]; THF 0.025-16 mg/L, HY-CDM): 21.3 ± 0.7 h
More rapid cell growth compared to control (CHO DG44 cell line [1]; THF 0.025-16 mg/L, HY-CDM): ≥ 14%
Effect on cell growth (CHO DG44 cell line [1]; THF 0.1-160 mg/L, chemically defined media): effective in improving the cell growth
Cell growth increase (CHO DG44 cell line [1]; THF 0.1-0.2 ma/L, HY-CDM): ≥ 35%
Cell density increase (CHO DG44 cell line [1]; THF 160 mg/L, HY-CDM): ~90%
Doubling time, Average (CHO DG44 cell line [1]; THF 160.0000 mg/L, HY-CDM): 23.0 h
Doubling time, Passage 1 (CHO DG44 cell line [1]; THF 160.0000 mg/L, HY-CDM): 25.8 h
Doubling time, Passage 2 (CHO DG44 cell line [1]; THF 160.0000 mg/L, HY-CDM): 21.6 h
Doubling time, Passage 3 (CHO DG44 cell line [1]; THF 160.0000 mg/L, HY-CDM): 21.6 h
Maximum cell density, Average (CHO DG44 cell line [1]; THF 160.0000 mg/L, HY-CDM): 35.7 ×10^5 cells/ml
Maximum cell density, Passage 1 (CHO DG44 cell line [1]; THF 160.0000 mg/L, HY-CDM): 33.0 ×10^5 cells/ml
Maximum cell density, Passage 2 (CHO DG44 cell line [1]; THF 160.0000 mg/L, HY-CDM): 36.4 ×10^5 cells/ml
Maximum cell density, Passage 3 (CHO DG44 cell line [1]; THF 160.0000 mg/L, HY-CDM): 37.6 ×10^5 cells/ml
Effect on cell growth (CHO DG44 cell line [1]; THF 480 mg/L, HY-CDM): inhibited the cell growth
Maximum cell density, Average (CHO DG44 cell line [1]; THF 480.0000 mg/L, HY-CDM): 06.3 ×10^5 cells/ml
Maximum cell density, Passage 1 (CHO DG44 cell line [1]; THF 480.0000 mg/L, HY-CDM): 09.4 ×10^5 cells/ml
Maximum cell density, Passage 2 (CHO DG44 cell line [1]; THF 480.0000 mg/L, HY-CDM): 04.6 ×10^5 cells/ml
Maximum cell density, Passage 3 (CHO DG44 cell line [1]; THF 480.0000 mg/L, HY-CDM): 04.8 ×10^5 cells/ml
Cell density increase (maximum) (CHO DG44 cell line [1]; THF 1.6-16 mg/L, HY-CDM): ≥ 155%
Effect on cell density and growth rate (CHO DG44 cell line [2]): increased the cell density and growth rate
Cell density higher than control (CHO DG44 cell line [3]; after the third passage): about 28%
Doubling time more rapid than control (CHO DG44 cell line [3]; after the third passage): about 20%
Cell density on day 2 (CHO DG44 cell line [3]; [4]): 21.9±2.2 ×10^5 cells/ml
Doubling time (CHO DG44 cell line [3]; [4]): 20.3 ± 1.3 h
Density of live cells on day 2 after culture (CHO DG44 cell line [3]; number of subcultures 3): 19.2 ×10^5 cells/ml
Doubling time (CHO DG44 cell line [3]; number of subcultures 3): 21.6 h
Density of live cells on day 2 after culture (CHO DG44 cell line [3]; number of subcultures 4): 22.3 ×10^5 cells/ml
Doubling time (CHO DG44 cell line [3]; number of subcultures 4): 21.1 h
Density of live cells on day 2 after culture (CHO DG44 cell line [3]; number of subcultures 5): 19.1 ×10^5 cells/ml
Doubling time (CHO DG44 cell line [3]; number of subcultures 5): 18.8 h
Density of live cells on day 2 after culture (CHO DG44 cell line [3]; number of subcultures 6): 23.3 ×10^5 cells/ml
Doubling time (CHO DG44 cell line [3]; number of subcultures 6): 20.2 h
Density of live cells on day 2 after culture (CHO DG44 cell line [3]; number of subcultures 7): 23.5 ×10^5 cells/ml
Doubling time (CHO DG44 cell line [3]; number of subcultures 7): 21.3 h
Density of live cells on day 2 after culture (CHO DG44 cell line [3]; number of subcultures 8): 24.1 ×10^5 cells/ml
Doubling time (CHO DG44 cell line [3]; number of subcultures 8): 18.6 h
